# From article PMC8513901, “Cooperative stabilisation of 14-3-3σ protein–protein interactions via covalent protein modification” (Chemical Science, 2021)
# Target: T1, 14-3-3σ (Homo sapiens, UniProt P31947)
# T1 construct: gene SFN; with ERα phospho-peptide (588AEGFPApTV595 in the crystal)
# T1 sequence (P31947 1-248): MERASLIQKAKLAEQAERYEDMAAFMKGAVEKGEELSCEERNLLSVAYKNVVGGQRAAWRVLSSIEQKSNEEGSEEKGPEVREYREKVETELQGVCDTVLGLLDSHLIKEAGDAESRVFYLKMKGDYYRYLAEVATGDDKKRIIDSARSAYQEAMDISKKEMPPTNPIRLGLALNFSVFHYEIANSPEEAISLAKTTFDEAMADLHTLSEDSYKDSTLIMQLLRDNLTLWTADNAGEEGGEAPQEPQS
# Experiment: crystal structure with ERα phospho-peptide and […]; FP dose-response and ITC stabilisation
# Type: binding
smiles,measurement,value
"C=CC(C)(C)OC[C@H]1O[C@H](O[C@@H]2C3=C([C@H](C)COC(C)=O)C[C@H](O)[C@]3(C)/C=C3/[C@@H](COC)CC[C@H]3[C@@H](C)[C@H]2O)[C@H](O)[C@@H](OC(C)=O)[C@@H]1O [compound 1, fusicoccin A]",EC50,880 nM
